The values below are quoted from earlier work in publication PMC4060611 (Inorganic Chemistry, 2014).

Assay in data set [1]: not given
The source holds these as a separate data set.

For data set [2] the following is noted: 0 to 500 μM, 72 h incubation.

Counter-ions that a name gives are not always drawn. Like-named read-outs stand apart in the source and are kept apart here.

Take `CCN1C(=CC=CC2=[N+](CCCCCC(=O)O)c3ccc(S(=O)(=O)O)cc3C2(C)C)C(C)(C)c2cc(S(=O)(=O)[O-])ccc21` [Cy3]: for the setting “in PBS”, the quantum yield is 4%.

For `CCN1C(=CC=CC=CC2=[N+](CCCCCC(=O)O)c3ccc(S(=O)(=O)O)cc3C2(C)C)C(C)(C)c2cc(S(=O)(=O)[O-])ccc21` [Cy5], the quantum yield (in PBS) is 30%.

With `NC(=O)CN1CCN(CC(N)=O)CCN(CC(N)=O)CCN(CC(N)=O)CC1.[Eu+3]` [[Eu-DOTAm]^3+], in data set [1], the “cell association relative to [Eu-DOTA]−” value is listed as 5 times.

`C=C[C@H]1C[N@@]2CC[C@H]1C[C@H]2[C@H](O)c1ccnc2ccc(OC)cc12` [quinine sulfate]: the “quantum yield Φr” value (in 0.1 M sulfuric acid) was 0.577.

Regarding Texas Red, the quantum yield (in water) is 30%.

“europium compound of 1,4,7,10-tetraazacyclododecane-1,4,7,10-tetraacetic acid [[Eu-DOTA]^−]”: the “effect on cell viability” value in data set [2] is given as “negligible effect”. Further, in data set [1], the cellular accumulation result was “negligible”.
